Assay results published in the NIST ThermoML archive (doi:10.1021/je900954y).

How the values were obtained:
[1] = 101 kPa, Liquid
[2] = xn = mol fraction of the nth substance listed; conditions: 101 kPa, Liquid

OCCO [1,2-ethanediol]
[1]
Conditions | mass density [kg/m3] | viscosity [mPa·s]
298.15 K | 1109.2 | 15.41
303.15 K | 1104.2 | 12.73
308.15 K | 1100.6 | 10.66

CCC(C)O (stereo not drawn) [butan-2-ol] + OCCO
[2]
Conditions | mass density, 298.15 K [kg/m3] | mass density, 303.15 K [kg/m3] | mass density, 308.15 K [kg/m3] | viscosity, 298.15 K [mPa·s] | viscosity, 303.15 K [mPa·s] | viscosity, 308.15 K [mPa·s]
x1 = 0.0514 | 1085.8 | 1081.8 | 1078.5 | 14.67 | 12.2 | 10.24
x1 = 0.1049 | 1062.7 | 1059.1 | 1055.6 | 13.78 | 11.58 | 9.795
x1 = 0.1847 | 1029.6 | 1025.9 | 1022.8 | 12.29 | 10.43 | 8.898
x1 = 0.261 | 1000.3 | 996.7 | 993.4 | 10.82 | 9.184 | 7.897
x1 = 0.3516 | 968.3 | 964.6 | 960.9 | 9.089 | 7.76 | 6.681
x1 = 0.4562 | 934.5 | 930.7 | 926.9 | 7.352 | 6.211 | 5.442
x1 = 0.5039 | 920.3 | 916.4 | 912.5 | 6.669 | 5.641 | 4.96
x1 = 0.6639 | 876.9 | 873.1 | 868.9 | 4.971 | 4.182 | 3.803
x1 = 0.7723 | 850.9 | 847.3 | 842.9 | 4.301 | 3.618 | 3.347
x1 = 0.8751 | 828.2 | 824.7 | 820.1 | 3.791 | 3.18 | 3.034
x1 = 1 | 802.4 | 798.7 | 793.8 | 2.999 | 2.499 | 2.475

CCCCCCO [hexan-1-ol]
[1]
Conditions | mass density [kg/m3] | viscosity [mPa·s]
298.15 K | 815.4 | 4.643
303.15 K | 811.5 | 3.999
308.15 K | 808.3 | 3.471

CCCCCCCO [heptan-1-ol]
[1]
Conditions | mass density [kg/m3] | viscosity [mPa·s]
298.15 K | 818.9 | 5.914
303.15 K | 815.4 | 5.045
308.15 K | 811.9 | 4.34

CCC(C)O (stereo not drawn) [butan-2-ol]
[1]
Conditions | mass density [kg/m3] | viscosity [mPa·s]
298.15 K | 802.4 | 2.999
303.15 K | 798.7 | 2.499
308.15 K | 793.8 | 2.475

CC(O)CO (stereo not drawn) [1,2-propanediol]
[1]
Conditions | mass density [kg/m3] | viscosity [mPa·s]
298.15 K | 1033.1 | 45.44
303.15 K | 1029.9 | 33.99
308.15 K | 1025.4 | 26.34

CC(O)CO (stereo not drawn) [1,2-propanediol] + CCCCCCO
[2]
Conditions | mass density, 298.15 K [kg/m3] | mass density, 303.15 K [kg/m3] | mass density, 308.15 K [kg/m3] | viscosity, 298.15 K [mPa·s] | viscosity, 303.15 K [mPa·s] | viscosity, 308.15 K [mPa·s]
x2 = 0 | 1033.1 | 1029.9 | 1025.4 | 45.44 | 33.99 | 26.34
x2 = 0.0771 | 1004.5 | 1000.9 | 996.1 | 33.27 | 24.28 | 20.05
x2 = 0.1213 | 989.9 | 986.2 | 981.6 | 28.44 | 20.82 | 17.27
x2 = 0.2425 | 953.6 | 949.9 | 945.8 | 18.56 | 13.93 | 11.97
x2 = 0.3311 | 930.7 | 927 | 923.1 | 14.38 | 11.28 | 9.627
x2 = 0.5225 | 888.7 | 884.9 | 881.3 | 9.486 | 8.063 | 6.428
x2 = 0.5377 | 885.7 | 881.9 | 878.2 | 9.057 | 7.837 | 6.308
x2 = 0.6309 | 868.9 | 865.1 | 861.5 | 7.625 | 6.725 | 5.322
x2 = 0.7444 | 850.3 | 846.4 | 842.9 | 6.313 | 5.206 | 4.494
x2 = 0.8611 | 833.3 | 829.4 | 826 | 5.324 | 4.61 | 3.935

OCCO [1,2-ethanediol] + CCC(C)O
[2], x2 = 0
Conditions | mass density [kg/m3] | viscosity [mPa·s]
298.15 K | 1109.2 | 15.41
303.15 K | 1104.2 | 12.73
308.15 K | 1100.6 | 10.66

CC(O)CO (stereo not drawn) [1,2-propanediol] + CCCCCCCO
[2]
Conditions | mass density, 298.15 K [kg/m3] | mass density, 303.15 K [kg/m3] | mass density, 308.15 K [kg/m3] | viscosity, 298.15 K [mPa·s] | viscosity, 303.15 K [mPa·s] | viscosity, 308.15 K [mPa·s]
x2 = 0 | 1033.1 | 1029.9 | 1025.4 | 45.44 | 33.99 | 26.34
x2 = 0.1383 | 980.3 | 976.4 | 972 | 27.34 | 20.69 | 16.05
x2 = 0.3163 | 928.8 | 925 | 920.8 | 15.9 | 12.8 | 9.977
x2 = 0.386 | 912.5 | 908.6 | 904.6 | 13.64 | 10.88 | 8.925
x2 = 0.4049 | 908.3 | 904.4 | 900.4 | 13.19 | 10.75 | 8.567
x2 = 0.4673 | 895.4 | 891.6 | 887.6 | 11.94 | 9.431 | 7.663
x2 = 0.6097 | 869.7 | 866 | 862.2 | 9.882 | 7.655 | 6.373
x2 = 0.7341 | 851 | 847.3 | 843.7 | 8.159 | 6.401 | 5.414
x2 = 0.8294 | 838.5 | 834.9 | 831.3 | 7.132 | 5.815 | 4.963

CCCCCCCO [heptan-1-ol] + CC(O)CO
[2], x1 = 1
Conditions | mass density [kg/m3] | viscosity [mPa·s]
298.15 K | 818.9 | 5.914
303.15 K | 815.4 | 5.045
308.15 K | 811.9 | 4.34

CCCCCCO [hexan-1-ol] + CC(O)CO
[2], x1 = 1
Conditions | mass density [kg/m3] | viscosity [mPa·s]
298.15 K | 815.4 | 4.643
303.15 K | 811.5 | 3.999
308.15 K | 808.3 | 3.471
